The text below walks through data of patent US20110251220A1, “Pharmaceutical compositions comprising gamma secretase modulators” (priority 2008, published 2011).

What all share (type): cell-based, human
In assay [1] the test system is MM cells. Briefly: Cell cycle analysis (propidium iodide staining), MM cells. Particulars: after 48 h and 72 h. As to the method:
(§1) The compound according to example 1, hereinafter referred to as GSI15, (compound RH02015SC, Maybridge, Acros Organics, Geel, Belgium) was freshly dissolved as 26 mM stock solution in Dimethylsulfoxide (DMSO). Multiple myeloma therapeutics used were melphalan (marketed as Alkeran®, GlaxoSmithKline, Munich, Germany) and bortezomib (marketed as Velcade®, Janssen-Cilag, Neuss, Germany). Melphalan was freshly dissolved at 10 mg/ml in 0.9% NaCl-solution. Bortezomib was freshly dissolved at 100 ng/ml in 0.9% NaCl solution. Gamma Secretase Inhibitor (GSI) treatment for apoptosis assessment by AnnexinV/PI staining, cell cycle analysis and coculture experiments was performed in 6-well plates. GSI15 stock solution was added directly to the cell suspension. GSI treatment for assaying proliferation was performed in 96-well plates. […]
(§2) For cell cycle analysis 2×10^5 cells were spun down, medium was aspirated and cells washed with PBS. […] After 10 minutes incubation in the dark at room temperature, cells were analyzed by flow cytometry. The amount of apoptotic cells was determined by AnnexinV/propidium iodide staining using Human AnnexinV-FITC Kit (Bender Medsystems, Vienna, Austria), according to manufacturer's protocol. […] Cells were then spun down again, resuspended in binding buffer containing PI and analyzed by flow cytometry.

Assay [2] has as its system OPM-2 cells. Briefly: Cell cycle analysis (propidium iodide), sub-G1 fraction, OPM-2. Conditions: OPM-2, after 72 h. As to the method:
as §1, §2

Assay [3] deals with OPM-2 cells. The experiment in a line: PARP cleavage by Western blotting, OPM-2. Here is the method:
In osteoclast coculture experiments, OPM-2 cells (1×10^6 cells) were added to osteoclasts in 60 mm dishes (4×10^6 cells per dish) in 3 ml MEM medium supplemented with 10% FCS, 100 U/ml penicillin, 100 μg/ml streptomycin. GSI15 (30 μM, 60 μM) or DMSO (equivalent to 60 μM) as solvent control were added to each well (daily treatment). After 48 h, 0.5 ml OPM-2 cell suspension were harvested per well and subjected to AnnexinV-FITC/PI staining. Remaining OPM-2 cells were harvested and lysed for either RNA or protein preparation. The monolayer of osteoclasts was washed twice with ice-cold PBS and then lysed for either RNA or protein preparation directly on the plate.
In osteoblast coculture experiments, OPM-2 cells (7.5×10^5) were added to osteoblasts (2×10^5 cells) in 6-well plates in 2 ml DMEM/HAM's F12 medium supplemented with 10% FCS, 100 U/ml penicillin, 100 μg/ml streptomycin. GSI15 (40 μM, 60 μM, 80 μM) or DMSO (equivalent to 80 μM) as solvent control was added to each well (daily treatment). After 72 h of coculture and GSI15 treatment OPM-2 cells in suspension were aspirated and subjected to protein lysis. The remaining monolayer of osteoblasts was washed twice with ice-cold PBS and lysed directly on the plate with protein lysis buffer.
Whole cell extracts were prepared and quantified as described in Jundt F, Anagnostopoulos I, Forster R, Mathas S, Stein H, Dorken B. Activated Notch1 signaling promotes tumor cell proliferation and survival in Hodgkin and anaplastic large cell lymphoma. Blood. 2002; 99:3398-3403. Proteins (30 μg) were resolved by sodium dodecyl sulfate-polyacrylamide gel electrophoresis (SDS-PAGE) and transferred to nitrocellulose membranes. Protein loading was normalized by Ponceau red staining. […]
Secondary antibodies were goat anti-mouse (Promega, Mannheim, Germany), goat anti-rat (Dianova, Hamburg, Germany), and goat anti-rabbit (Santa Cruz Biotechnology) horseradish peroxidase (HRP)-conjugated antibodies. Detection was done using Pico chemi-luminescence reagent (Perbio Science, Bonn, Germany).

Regarding `CC(C)c1ccc(S(=O)(=O)Nc2cccnc2Oc2ccc(Cl)cc2)cc1` [Example 1, N-(2-(4-chlorophenoxy)pyridin-3-yl)-4-isopropylbenzenesulfonamide], the “distribution of G1-, S- and G2-phase” value in assay [1] is “remained unaltered”. Besides, the sub-G1 fraction entry in assay [2] is “increase in the sub-G1 fraction”. For the same compound, the PARP cleavage entry was “apoptosis induction” in assay [3] (MM cells in coculture with OBL or MSC); “Strong induction of PARP cleavage” in assay [3] (OPM-2 in mono- and coculture with OCL). Moreover, in assay [3] (OPM-2, 30 μM GSI15), the “PARP cleavage product (apoptosis marker)” value is “Apoptosis induction could be shown”.
